Data as given in patent US10335417B2, “Thiazideamide derivative and use thereof” (Institute of Pharmacology and Toxicology Academy of …, priority 2015, dated 2019).

Legend:
[1] = tested on: chick embryo dorsal root ganglion; experiment: in vitro serum-free culture model of chick embryonic dorsal root ganglion: neurite growth score with NGF; format: cell-based; conditions: for Average score (growth of neurites of chick embryo dorsal root ganglion): 48 h, score 0-3, average of five ganglions, control 0.33
Protocol: The neurotrophic activity of the compounds according to the invention can be embodied in multiple in vitro biological models, such as in vitro serum-free culture model of chick embryonic dorsal root ganglion.
Experimental method: in a sterile environment, chick embryo, which had been incubated for 8 d, had the spinal and bilateral ganglion exposed under anatomical lens. Dorsal root ganglions were picked one by one using sharp forceps, and seeded in culture bottles spread with rat tail collagen, at a density of 5-6 ganglions per bottle, and two bottles for each dose. After attachment culture in a 37° C., 5% CO2 incubator for 1 h, serum-free medium DMEM containing nerve growth factor (NGF) (0.15 ng/mL), and the compound according to the invention were added. In the control group, only the medium and the same dose of NGF were added. After culture in the incubator for 48 h, the growth of neurite around dorsal root ganglion was observed under inverted phase contrast microscope, which was scored depending on the length and density of neurite.
Evaluation criteria: 0: no neurite; 1: rare long neurite; 2: relatively long or dense neurite; 3: long and dense neurite.

[2] = tested on: BCAO-LBP mice (incomplete global cerebral ischemia); experiment: mouse BCAO-LBP model of incomplete global cerebral ischemia: cerebral MDA content and neurological function score; format: in vivo, Kunmin mice; conditions: for Neurologic deficit score / MDA content: 30 mg/kg i.g. once/d for 3 d, x ± SEM; for Neurologic deficit score: behaviour within 6 h after ligation, model group 3.92, sham 0.00; for MDA content: whole cerebrum, model group 40.94, sham 33.15
Excerpt: In the Example, Kunmin mice were used as experimental subjects, intragastric (i.g.) administration was used, mouse BCAO-LBP (bilateral carotid artery occlusion with low blood pressure) model was used, and by determining neurological function score and the cerebral malondialdehyde (MDA) content in mice, the compounds were investigated for their protective effects on incomplete global cerebral ischemia in mice when administered prophylactically.
2.1.2 Preparation of a drug for intragastric administration: the compound was prepared to a 1.5 mg/ml solution using 0.7% CMC-Na solution.
28 mice, which had adapted to the laboratory environment for 1 week, were evenly grouped depending on body weight. The mice were intragastrically administered with 0.7% CMC-Na or one of the compounds, once/d, for 3 d. The groups were as followed:
Administration group: 12 mice, intragastrically administered at a dose of 0.2 ml/10 g, i.e., the dose of the compound was 30 mg/kg.
2.3.1 Mouse bilateral carotid artery ligation: 1 h after the last administration, the mice were subjected to orbital bloodletting to reduce blood pressure (which was about 30% of the total blood volume of the mice), and then fixed in supine position on the operating table, and cut in the middle of neck. Carotid artery was subjected to blunt dissection, and 2 lines were used in ligation for each side. The time counting started after the ligation with the third line, the carotid artery was cut off between the two lines, and the incision was sewn up. In the Sham-operated group, the carotid artery was only separated without ligation. After the operation, the mice were unfixed quickly, and the mice were observed and recorded for the behaviors within 6 h (scoring depending on the following table using blind method) and the death time. The brains were taken quickly after the mice died, the cerebellums were removed, and the MDA content in the whole cerebrum was determined by thiobarbituric acid (TBA).
The cerebra of mice were taken and weighed, and were prepared into 15% brain homogenate using N.S. 1.2 ml brain homogenate was placed in a 37° C. water bath for 1 h (shaking once every 10 min) and then taken out. 20% trichloroacetic acid 0.6 ml was added, and the mixture was mixed well, and was on standing for 10 min. After centrifugation at 2000 rpm for 10 min, to 1.2 ml supernatant, 0.67% TBA 0.6 ml was added. The mixture was placed in a boiling water bath for 10 min, and was taken out for cooling, and the OD value at a wavelength of 532 nm was determined.
The experimental data was expressed as x±SEM; SPSS 13.0 statistic software was used. Homogeneity or heterogeneity of variance was determined by one-factor analysis of variance. In the case of homogeneity of variance, LSD test was used; in the case of heterogeneity of variance, Dunnett's T3 test was used. Significant difference among different groups was compared, and P<0.05 indicated statistical significance.

in vitro = conditions: dog, MDCK-MDR1
Excerpt: (§1) MDCK-MDR1 cells were monolayer cells which highly express P-gp transporter after transfection of MDCK (Madin-Darby canine kidney epithelial cell) with MDR1 gene. Due to its density and high expression of efflux protein, the monolayer has similarity compared to blood-brain barrier (BBB) structure and now can be used as one of models for evaluating the ability of passing through BBB. In the invention, MDCK-MDR1 cells were used to study the membrane permeability of the compounds according to the invention, and to primarily evaluate its ability of passing through BBB.
(§2) The frozen MDCK-MDR1 cells were quickly thawed in a 37° C. water bath. To the resuscitated cells, DMEM medium containing 10% FBS was added, and the cells were cultured in an incubator at 37° C., 5% CO2, and a relative humidity of 90%. The medium was changed every other day. After fusion of the cells growing for 1-2 days, the cells were digested with 0.25% trypsin-EDTA (0.2%) mixed digestion solution at 37° C., and were sub-cultured at a certain ratio. The cells for use in experiment were those passaged for 40-60 generations.
(§3) When the cell fusion degree reached 80%, the cells were digested and then suspended in complete medium, and seeded to Millicell plate at 1×10^6 cells·mL^−1. The medium was changed every other day, and 1 week later, the medium was changed every day. After culturing for 5 days, the resistance value reached a constant value (>200 Ω·cm^2), and the cells could be used in the transport experiment.
(§4) After washing with 37° C. HBSS twice, the cells were incubated in a 37° C. culture incubator, wherein Rho-123 was added to the upper wells, and HBSS was added to the bottom wells. The incubation was carried out in a constant temperature shaker, and the solutions from the bottom wells were collected at each time point (0 min, 30 min, 90 min, 120 min), and stored at −20° C. for further use. The amount of Rho-123 permeated to the bottom well was determined by fluorospectrophotometer, wherein the emission wavelength was […], and the excitation wavelength was 530 nm.
(§5) The permeability from cavity-surface to basal surface: drug-containing HBSS 0.35 mL was add to Apical (AP), and blank HBSS 1.2 mL was added to Basolateral (BL). The Millicell was placed at 37° C. in a shaker under shaking at 50 r·min^−1, 50 μL sample was collected from the bottom well at 0, 30, 90, 120 min, respectively, and the same volume of blank HBSS was supplemented. 3 wells were set for each concentration, and to the sample, an internal standard solution (50 μL) and ethyl acetate (350 μL) were added precisely. The mixture was mixed homogeneously under shaking, and centrifuged at 12000 rmp for 5 min. The supernatant (300 μL) was volatilized to dryness, and re-dissolved in 50 μL acetonitrile. The 10 μL resultant solution was used for determination.
(§6) The permeability from basal surface to cavity surface: the drug is added to Basolateral (BL), and blank HBSS was added to Apical (AP), and the other steps were the same as those of the experiment for determining the permeability from cavity-surface to basal surface.
(§7) The apparent permeability coefficient (Papp) of a drug reflects the ability of the drug to pass through cell monolayer and the drug absorption rate and extent. It can be calculated in accordance with the following equation: […]
(§8) wherein, Q represents the amount of drug permeated in the t period, A represents cell surface area, and represents the area (0.6 cm^2) of supporting film in this model, and C0 represents an initial concentration. The unit of Papp is expressed as cm·s^−1.
(§9) By measurement using LC/MS, the concentration of each sample was quantitated using its standard curve (50 nM-10000 nM).

MDCK-MDR1 cells = experiment: in vitro; conditions: MDCK-MDR1
Excerpt: as §1, §2, §3, §4, §5, §6, §7, §8, §9

[3] = compound 100 pM + NGF 0.15 ng/mL

SMILES | Papp at 120 min (in vitro) [×10⁻⁶ cm/s] | Papp (apparent permeability coefficient) (MDCK-MDR1 cells) [×10⁻⁶ cm/s] | Average score (growth of neurites of chick embryo dorsal root ganglion) ([1]; compound 1 pM + NGF 0.15 ng/mL) | Average score (growth of neurites of chick embryo dorsal root ganglion) [1, 3] | Neurologic deficit score [2] | neurologic deficit score decreased compared to the group administered with Compound 5 ([2]; 30 mg/kg i.g., BCAO-LBP mice) | MDA content [2] [nmol/g] | neurologic deficit score decreased compared to the group administered with Compound 6 ([2]; 30 mg/kg i.g., BCAO-LBP mice) | neurotrophic activity increased compared to Compound 6 ([1]; dose 1 pM) [%] | neurotrophic activity increased compared to Compound 6 ([1]; dose 100 pM) [%]
CCC(C)[C@H](NC(=O)[C@@H]1CSCCN1S(=O)(=O)c1ccc(C)cc1)C(=O)OC(C)(C)C (stereo partly drawn) [Compound 9, (2S,3R)-tert-butyl-3-methyl-2((R)-(4-methylphenyl)sulfonyltetrahydro-1,4-thiazin-3-aminoformyl)valerate] | 12.4 | – | 1.76 | 2.56 | 2.37 ± 0.31 | about 35% | 33.29 ± 1.81 | – | – | –
CCOC(=O)[C@H](CC(C)C)NC(=O)[C@@H]1CSCCN1S(=O)(=O)c1ccc(C)cc1 [Compound 5, (3R)-4-[(4-methylbenzenesulfonyl)]-1,4-thiazin-3-carbonyl-L-leucine ethyl ester, reference compound] | – | 8.38 | 0.65 | 1.55 | 3.62 ± 0.31 | – | 36.09 ± 1.85 | – | – | –
CCC(C)[C@H](NC(=O)[C@@H]1CSCCN1S(=O)(=O)c1ccc(C)cc1)C(=O)OC (stereo partly drawn) [Compound 8, (2S,3R)-methyl-3-methyl-2((R)-(4-methylphenyl)sulfonyltetrahydro-1,4-thiazin-3-aminoformyl)valerate] | 19.2 | – | 1.78 | 2.45 | 1.77 ± 0.28 | – | 34.95 ± 1.55 | about 15% | – | –
Cc1ccc(S(=O)(=O)N2CCSC[C@H]2C(=O)N[C@H](CC(C)C)C(=O)OC(C)C)cc1 [Compound 6, (3R)-4-[(4-methylbenzenesulfonyl)]-1,4-thiazin-3-carbonyl-D-leucine isopropyl ester, reference compound] | – | 39.5 | 1.68 | 2.55 | 2.08 ± 0.40 | – | 32.87 ± 0.95 | – | – | –

Continued, in another order:

Papp at 120 min (in vitro) [×10⁻⁶ cm/s] | Papp (apparent permeability coefficient) (MDCK-MDR1 cells) [×10⁻⁶ cm/s] | SMILES | Average score (growth of neurites of chick embryo dorsal root ganglion) ([1]; compound 1 pM + NGF 0.15 ng/mL) | Average score (growth of neurites of chick embryo dorsal root ganglion) [1, 3] | Neurologic deficit score [2] | neurologic deficit score decreased compared to the group administered with Compound 5 ([2]; 30 mg/kg i.g., BCAO-LBP mice) | MDA content [2] [nmol/g] | neurologic deficit score decreased compared to the group administered with Compound 6 ([2]; 30 mg/kg i.g., BCAO-LBP mice) | neurotrophic activity increased compared to Compound 6 ([1]; dose 1 pM) [%] | neurotrophic activity increased compared to Compound 6 ([1]; dose 100 pM) [%]
40.6 | – | CCOC(=O)[C@H](CCc1ccccc1)NC(=O)[C@@H]1CSCCN1S(=O)(=O)c1ccc(C)cc1 [Compound 22, (S)-ethyl-4-phenyl-2((R)-(4-methylphenyl)sulfonyltetrahydro-1,4-thiazin-3-aminoformyl)butyrate] | 1.88 | 2.78 | 3.08 ± 0.40 | about 15% | 33.27 ± 1.61 | – | – | –
18.9 | – | CCOC(=O)[C@@H](NC(=O)[C@@H]1CSCCN1S(=O)(=O)c1ccc(C)cc1)C(C)C [Compound 13, (S)-ethyl-3-methyl-2((R)-(4-methylphenyl)sulfonyltetrahydro-1,4-thiazin-3-aminoformyl)butyrate] | 1.96 | 2.88 | 2.47 ± 0.40 | ~32% | 33.90 ± 1.45 | – | – | –
28.5 | – | Cc1ccc(S(=O)(=O)N2CCSC[C@H]2C(=O)N[C@@H](Cc2ccccc2)C(=O)OCc2ccccc2)cc1 [Compound 18, (S)-benzyl-3-phenyl-2((R)-(4-methylphenyl)sulfonyltetrahydro-1,4-thiazin-3-aminoformyl)propionate] | 1.66 | 2.68 | 2.65 ± 0.31 | ~27% | 32.66 ± 0.93 | – | – | –
18.8 | – | Cc1ccc(S(=O)(=O)N2CCSC[C@H]2C(=O)N[C@H](Cc2ccccc2)C(=O)OC(C)(C)C)cc1 [Compound 20, (R)-tert-butyl-3-phenyl-2((R)-(4-methylphenyl)sulfonyltetrahydro-1,4-thiazin-3-aminoformyl)propionate] | 2.10 | 3.32 | 3.76 ± 0.31 | – | 34.90 ± 1.65 | – | 25 | 30
15.6 | – | Cc1ccc(S(=O)(=O)N2CCSC[C@H]2C(=O)N[C@H](C(=O)OCc2ccccc2)C(C)C)cc1 [Compound 11, (S)-benzyl-3-methyl-2((R)-(4-methylphenyl)sulfonyltetrahydro-1,4-thiazin-3-aminoformyl)butyrate] | 1.86 | 2.65 | 3.66 ± 0.31 | – | 32.57 ± 0.75 | – | – | –
